40 compounds from patent US20080287445A1, “Prokineticin 2 receptor antagonists” (priority 2005, published 2008) can be followed below.

The target in the assay is T1, GPR73 (prokineticin 1 receptor) (Homo sapiens, UniProt Q8TCW9).
T1 construct: expressed in transfected cells; host or cells: HEK 293
The assay can be described thus: PK1 functional assay: Ca2+ mobilization screening for PK1 antagonists on the FLIPR. Particulars: HEK 293 GPR73 cells, multiple values = multiple testing; for inhibition at 10 µM: HEK293, 10 μM compound, read-out: Ca^2+ Mobilization % Inh @ 10 μM; for IC50: PK1 ligand preparation at its EC50, read-out: Ca^2+ Mobilization IC50; for Ca^2+ Mobilization % Inh @ 10 μM: 10 μM compound. Type of assay: cell-based. As for the experimental part: At a time of 24 h prior to running the assay, in cell culture media (DMEM containing high Glucose and L-glutamine, 10% FBS, 1% Pen/Streptomycin, 1% Sodium Pyruvate, 20 mM HEPES, Zeocin 200 mg/L), 100 μL of 1.3*10^6/ml HEK 293 GPR73 (prokineticin 1 receptor) expressing cells were plated in a 96 well poly-d-lysine coated plate (Costar), and incubated at 37 C and 5% CO2. On the day in which the assay was run, the media was removed and 200 μL of 5× Calcium Plus Dye (Molecular Devices) which was previously resuspended with 200 mL of assay buffer [HBSS w/Ca^2+ and Mg^2+ w/o phenol red, 20 mM HEPES, 0.1% BSA, 10 mL probenecid (710 mg probenecid in 5 mL of 1N NaOH, to which was then added 5 mL HBSS containing 20 mM HEPES)] was added to each well of the 96-well plate. The plate was incubated at 37 C and 5% CO2 for 30 min in dark. The plate was removed and allowed to reach RT for 15 min in the dark. The assay was then run on the FLIPR. In Brief: base line read for 1 min, compound added (25 μL) and incubated for 4 min, 15 seconds, PK1 ligand preparation added (25 μL) for a final concentration of a previously determined EC50 and fluorescence was counted for 1 min, 45 seconds. Baseline is described as the amount of relative fluorescence read when buffer alone is added to cells. Baseline was subtracted from all wells. Percent of control was calculated as follows:
(Baseline subtracted well value is divided by baseline subtracted max value)*100. Percent inhibition is 100 minus the percent of control value.
The IC50 is defined as the amount of a given compound required to inhibit 50% of the maximum signal that is generated by the concentration of PK1 preparation used in our assay. IC50 values were calculated using GraphPad Prism.

Several values for one entry are separate records, joined by “and”; a condition that tells them apart may be missing. Equal values may be shown once.

T1 sequence (Q8TCW9 whole entry, species assumed): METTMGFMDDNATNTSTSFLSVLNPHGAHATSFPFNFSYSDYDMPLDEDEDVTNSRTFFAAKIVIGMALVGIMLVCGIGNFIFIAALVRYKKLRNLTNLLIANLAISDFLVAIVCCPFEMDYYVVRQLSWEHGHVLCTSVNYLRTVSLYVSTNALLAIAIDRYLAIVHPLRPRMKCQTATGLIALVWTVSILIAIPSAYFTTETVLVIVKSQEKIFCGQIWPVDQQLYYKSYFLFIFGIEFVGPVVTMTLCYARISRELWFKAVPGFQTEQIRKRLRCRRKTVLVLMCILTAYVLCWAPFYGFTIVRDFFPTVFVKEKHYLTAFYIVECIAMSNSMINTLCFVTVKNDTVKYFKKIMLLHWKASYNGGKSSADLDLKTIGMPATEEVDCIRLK

As a reminder, the IC50 is the concentration at which inhibition is half-maximal. Consider `COc1ccc(Cn2c(NCCc3ccccn3)nc(=O)n(Cc3ccc(Cl)c(Cl)c3)c2=O)cc1` [Cpd 1], for which the inhibition at 10 µM was determined as 37% and the IC50 is over 10000 nM.

For the compound `COc1ccc(Cn2c(NCc3cccnc3)nc(=O)n(Cc3ccc(Cl)c(Cl)c3)c2=O)cc1` [Cpd 2], the inhibition at 10 µM amounted to 47% and the IC50 was over 10000 nM.

As to `COc1ccc(Cn2c(NCc3ccc(N)cn3)nc(=O)n(Cc3ccc(Cl)cc3)c2=O)cc1` [Cpd 4], the inhibition at 10 µM is 94% and the IC50 came to 357 nM.

Regarding `COc1ccc(Cn2c(NCc3ccc(N)nc3)nc(=O)n(Cc3ccc(Cl)cc3)c2=O)cc1` [Cpd 5], the inhibition at 10 µM turned out to be 81% and the IC50 came out at 1120 nM.

With `COc1ccc(Cn2c(NCc3cncnc3N)nc(=O)n(Cc3ccc(OC)cc3)c2=O)cc1` [Cpd 6], the inhibition at 10 µM came to 90% and the IC50 worked out at 176 nM.

Take `COc1ccc(Cn2c(CNCc3cccnc3N)cc(=O)n(Cc3ccc(OC)cc3)c2=O)cc1` [Cpd 7, 6-{[(2-Amino-pyridin-3-ylmethyl)-amino]-methyl}-1,3-bis-(4-methoxy-benzyl)-1H-pyrimidine-2,4-dione]: the inhibition at 10 µM worked out at 60% and the IC50 came out at 6200 nM.

Turning to `COc1ccc(Cn2c(NCc3cccnc3N)nc(=O)n(Cc3ccc(F)cc3)c2=O)cc1` [Cpd 8], the “Ca^2+ Mobilization % Inh @ 10 μM” value came to 86%; the inhibition at 10 µM turned out to be 89%; the IC50 was 535 nM and 669 nM.

Consider `COc1ccc(Cn2c(NCc3cc4ccccc4nc3N)nc(=O)n(Cc3ccc(OC)cc3)c2=O)cc1` [Cpd 9], for which the inhibition at 10 µM is 95% and the IC50 turned out to be 295 nM.

As for `COc1ccc(Cn2c(NCCc3cccnc3N)nc(=O)n(Cc3ccc(F)cc3)c2=O)cc1` [Cpd 10], the inhibition at 10 µM was 82% and the IC50 was 1250 nM.

As for `COc1ccc(Cn2c(NCc3cccnc3N3CCCC3)nc(=O)n(Cc3ccc(F)cc3)c2=O)cc1` [Cpd 11], the inhibition at 10 µM was found to be 54% and the half-maximal inhibitory concentration (IC50) amounted to 6790 nM.

Regarding `COc1ccc(Cn2c(NCc3cccnc3N3CCNCC3)nc(=O)n(Cc3ccc(OC)cc3)c2=O)cc1` [Cpd 12], the inhibition at 10 µM worked out at 74% and the IC50 amounted to 1290 nM.

As to `COc1ccc(Cn2c(NCc3cccnc3N3CCCCC3)nc(=O)n(Cc3ccc(OC)cc3)c2=O)cc1` [Cpd 13], the inhibition at 10 µM amounted to 72% and the IC50 came out at 544 nM.

`CNc1ncccc1CNc1nc(=O)n(Cc2ccc(F)cc2)c(=O)n1Cc1ccc(OC)cc1` [Cpd 14]: the inhibition at 10 µM was determined as 90% and the IC50 was 793 nM.

On to `CCCNc1ncccc1CNc1nc(=O)n(Cc2ccc(F)cc2)c(=O)n1Cc1ccc(OC)cc1` [Cpd 15], for which the inhibition at 10 µM was found to be 95% and the IC50 was 327 nM.

For `CCCCNc1ncccc1CNc1nc(=O)n(Cc2ccc(F)cc2)c(=O)n1Cc1ccc(OC)cc1` [Cpd 16], the inhibition at 10 µM was determined as 89% and the IC50 came out at 348 nM.

As to `COc1ccc(Cn2c(NCc3cccnc3N3CCOCC3)nc(=O)n(Cc3ccc(F)cc3)c2=O)cc1` [Cpd 17], the inhibition at 10 µM amounted to 73% and the IC50 was 2430 nM.

On to `COc1ccc(Cn2c(NCc3cccnc3N3CCSCC3)nc(=O)n(Cc3ccc(F)cc3)c2=O)cc1` [Cpd 18], for which the inhibition at 10 µM amounted to 58% and the IC50 is 5480 nM.

Consider `CCNc1ncccc1CNc1nc(=O)n(Cc2ccc(F)cc2)c(=O)n1Cc1ccc(OC)cc1` [Cpd 19], for which the inhibition at 10 µM turned out to be 83% and the IC50 was found to be 885 nM.

`COc1ccc(Cn2c(NCc3cccnc3N3CCOCC3)nc(=O)n(Cc3ccc(OC)cc3)c2=O)cc1` [Cpd 20]: the inhibition at 10 µM stood at 95% and the IC50 is 177 nM.

Turning to `COc1ccc(Cn2c(NCc3ccc4c(n3)NCCC4)nc(=O)n(Cc3ccc(F)cc3)c2=O)cc1` [Cpd 21, 3-(4-Fluoro-benzyl)-1-(4-methoxy-benzyl)-6-[(5,6,7,8-tetrahydro-[1,8]naphthyridin-2-ylmethyl)-amino]-1H-[1,3,5]triazine-2,4-dione], the inhibition at 10 µM came out at 85% and the IC50 came to 656 nM.

For the compound `COc1ccc(Cn2c(NCc3cnc(C)cc3C)nc(=O)n(Cc3ccc(OC)cc3)c2=O)cc1` [Cpd 22, 6-[(4,6-Dimethyl-pyridin-3-ylmethyl)-amino]-1,3-bis-(4-methoxy-benzyl)-1H-[1,3,5]triazine-2,4-dione], the “Ca^2+ Mobilization % Inh @ 10 μM” value was 96% and 97%; the inhibition at 10 µM was found to be 88%.

As for `COc1ccc(Cn2c(NCc3cccnc3N)nc(=O)n(Cc3cc4ccccc4o3)c2=O)cc1` [Cpd 23], the inhibition at 10 µM worked out at 97% and the IC50 came to 231 nM.

On to `COc1ccc(Cn2c(NCc3cccnc3N)nc(=O)n(Cc3ccc(SC)cc3)c2=O)cc1` [Cpd 24], for which the inhibition at 10 µM amounted to 60% and the IC50 was found to be 115 nM.

As to `COc1ccc(Cn2c(NCc3ccc(-c4ccc(F)cc4)nc3)nc(=O)n(Cc3ccc(OC)cc3)c2=O)cc1` [Cpd 25], the inhibition at 10 µM is 89% and the IC50 was 2740 nM.

Turning to `COc1ccc(Cn2c(NCc3cccnc3N)cc(=O)n(Cc3ccc(OC)cc3)c2=O)cc1` [Cpd 26], the inhibition at 10 µM worked out at 84% and the IC50 was found to be 45 nM.

In the case of `COc1ccc(Cn2c(NCc3cccnc3NCCN(C)C)nc(=O)n(Cc3ccc(F)cc3)c2=O)cc1` [Cpd 27], the inhibition at 10 µM is 102% and the IC50 was found to be 88 nM.

Turning to `COCCNc1ncccc1CNc1nc(=O)n(Cc2ccc(F)cc2)c(=O)n1Cc1ccc(OC)cc1` [Cpd 28, 3-(4-Fluoro-benzyl)-1-(4-methoxy-benzyl)-6-{[2-(2-methoxy-ethylamino)-pyridin-3-ylmethyl]-amino}-1H-[1,3,5]triazine-2,4-dione], the “Ca^2+ Mobilization % Inh @ 10 μM” value was 90% and 91%; the inhibition at 10 µM is 85%.

In the case of `COc1ccc(Cn2c(NCc3cccnc3NCCO)nc(=O)n(Cc3ccc(F)cc3)c2=O)cc1` [Cpd 29], the inhibition at 10 µM was 111% and the IC50 was found to be 110 nM.

As for `COc1ccc(Cn2c(NCc3cccnc3NCCN)nc(=O)n(Cc3ccc(F)cc3)c2=O)cc1` [Cpd 30], the inhibition at 10 µM amounted to 68% and the IC50 is 1240 nM.

Consider `COc1ccc(Cn2c(NCc3cccnc3NC3CCCCC3)nc(=O)n(Cc3ccc(F)cc3)c2=O)cc1` [Cpd 31], for which the inhibition at 10 µM came to 91% and the IC50 was found to be 939 nM.

For `COc1ccc(Cn2c(NCc3ccc[n+]([O-])c3N)nc(=O)n(Cc3ccc(OC)cc3)c2=O)cc1` [Cpd 32], the inhibition at 10 µM turned out to be 78% and the 50% inhibitory concentration (IC50) amounted to 1220 nM.

As to `COc1ccc(Cn2c(=O)nc(NCc3cccnc3N)n(Cc3ccc(O)cc3)c2=O)cc1` [Cpd 33, 6-[(2-Amino-pyridin-3-ylmethyl)-amino]-1-(4-hydroxy-benzyl)-3-(4-methoxy-benzyl)-1H-[1,3,5]triazine-2,4-dione], the “Ca^2+ Mobilization % Inh @ 10 μM” value amounted to 102%; the inhibition at 10 µM was found to be 95%; the concentration for half-maximal inhibition (IC50) was 49 nM and 77 nM.

`CCCNc1ncccc1CNc1nc(=O)n(Cc2ccc(OC)cc2)c(=O)n1Cc1ccc(OC)cc1` [Cpd 34]: the inhibition at 10 µM came to 98% and the IC50 stood at 81 nM.

For `COc1ccc(Cn2c(=O)nc(NCc3cccnc3N)n(Cc3ccc(OC(F)F)cc3)c2=O)cc1` [Cpd 35, 6-[(2-Amino-pyridin-3-ylmethyl)-amino]-1-(4-difluoromethoxy-benzyl)-3-(4-methoxy-benzyl)-1H-[1,3,5]triazine-2,4-dione], the inhibition at 10 µM was determined as 85% and the IC50 was found to be 34 nM.

As to `COC(=O)c1ccc(Cn2c(NCc3cccnc3N)nc(=O)n(Cc3ccc(OC)cc3)c2=O)cc1` [Cpd 36], the inhibition at 10 µM turned out to be 84% and the IC50 amounted to 270 nM.

Take `COc1ccc(Cn2c(=O)nc(NCc3cccnc3N)n(Cc3ccc(NC(C)=O)cc3)c2=O)cc1` [Cpd 37]: the inhibition at 10 µM is 86% and the IC50 was found to be 250 nM.

As to `COc1ccc(Cn2c(=O)nc(NCc3cccnc3N)n(Cc3ccc(OC(F)(F)F)cc3)c2=O)cc1` [Cpd 38], the inhibition at 10 µM was determined as 91% and the IC50 was 391 nM.

Consider `COc1ccc(Cn2c(NCc3ccccn3)nc(=O)n(Cc3ccc(OC)cc3)c2=O)cc1` [Cpd 39], for which the “Ca^2+ Mobilization % Inh @ 10 μM” value worked out at 95%; the inhibition at 10 µM was 92%; the IC50 is 63 nM and 82 nM.

On to `COc1ccc(Cn2c(NCc3ccncc3)nc(=O)n(Cc3ccc(OC)cc3)c2=O)cc1` [Cpd 41], for which the inhibition at 10 µM was 72% and the IC50 is 1060 nM.

In the case of `COc1ccc(Cn2c(NCc3cccnc3N)nc(=O)n(Cc3cccc(OC)c3)c2=O)cc1` [Cpd 42], the inhibition at 10 µM was found to be 49% and the half-maximal inhibitory concentration (IC50) is over 10000 nM.
